Measured values from US8034606B2, “Acid tolerant Lactobacillus sakei probio-65 with the ability of growth suppression of pathogenic microorganisms and the anti-allergic effect” (priority 2005, dated 2011).

System: Lactobacillus sakei Probio-65
Experiment: Antibiotic sensitivity test of the strain against fourteen antibiotics
Assay type: cell-based
Settings: for Diameter: antibiotic amount 2 to 250 μg depending on antibiotic, compared with Resistance (mm); for Results: antibiotic amount (μg), resistant or susceptible by diameter (mm)

Compound	Diameter [mm]	Results
Cc1noc(NS(=O)(=O)c2ccc(N)cc2)c1C [Sulfisoxzazole]	0	R
Neomycin	9	R
CN(C)c1ccc(O)c2c1C[C@H]1C[C@H]3[C@H](N(C)C)C(O)=C(C(N)=O)C(=O)[C@@]3(O)C(O)=C1C2=O [Minocyclin]	26	S
Gentamicin	9	R
CC1(C)S[C@@H]2[C@H](NC(=O)Cc3ccccc3)C(=O)N2[C@H]1C(=O)O [Penicillin G]	20	
